In US10301308B2, “Azetidine derivatives for tau imaging” (Eli Lilly and Company, priority 2015, dated 2019):

Key:
[1] = Preliminary stability of Compound 8 formulations (radiochemical purity by HPLC); format: physicochemical
Protocol: The HPLC fraction containing the purified 3-(3-[18F]-fluoroazetidin-1-yl)-8-methylbenzo[4,5]imidazo[1,2-a]pyridine is diluted with 0.5% (w/v) sodium ascorbate in WFI (40 mL). The diluted solution is then passed through a Sep-Pak® C18 Plus Light Cartridge (130 mg Sorbent per Cartridge, 55-105 μm Particle Size, Waters Part No. WAT023501; conditioned with ethanol (5 mL) then WFI (5 mL) prior to use) and the retained 3-(3-[18F]-fluoroazetidin-1-yl)-8-methylbenzo[4,5]imidazo[1,2-a]pyridine is washed with 0.5% (w/v) sodium ascorbate in water for injection solution (10 mL). 3-(3-[18F]-fluoroazetidin-1-yl)-8-methylbenzo[4,5]imidazo[1,2-a]pyridine is eluted off the C18 cartridge using dehydrated alcohol, USP (1 mL) into a flask containing 7 mL of 0.5% (w/v) sodium ascorbate in 0.9% sodium chloride for injection, USP. The C18 cartridge is then rinsed with an additional 2 mL of 0.5% (w/v) sodium ascorbate in 0.9% sodium chloride for injection, USP. The resulting solution (total 10 mL) is sterile filtered through a 0.22 μm Millex GV PVDF filter (Millipore SLGV013SL) into the bulk product vial (BPV: 30 mL Sterile Empty Vial from Allergy Laboratories with a 20 mm chlorobutyl stopper). A sample from the BPV is taken out for quality control (see FIG. 2 for representative chromatogram) by HPLC using the gradient method detailed in Table 1 below.
Preliminary stability of 3-(3-[18F]-fluoroazetidin-1-yl)-8-methylbenzo[4,5]imidazo[1,2-a]pyridine (Compound 8) formulations are evaluated. Samples from batches (size ranging from 235 mCi to 471 mCi) are taken and analyzed by HPLC for radiochemical purity over an 6 hour time period.

[2] = test system: normal human brain tissue; test: Autoradiography on normal versus AD human brain slices, less stringent or alcohol free washes; format: binding
Source text: In order to show the absence of non-tau binding, autoradiography scans are obtained from 3-(3-[18F]-fluoroazetidin-1-yl)-8-methylbenzo[4,5]imidazo[1,2-a]pyridine on normal human brain tissue. The experimental procedure is the same as provided in Example 5 except that only 20 uCi of 18F-ligand is applied to the tissue slices and the washing conditions are less stringent. […] The autoradiography is further carried out with no ethanol in the washing solutions.

tau protein = test: Clinical PET imaging of tau protein in the brain (SUVr); format: in vivo, human
Protocol: (§1) Clinical evaluation of 3-(3-[18F]-Fluoroazetidin-1-yl)-8-methylbenzo[4,5]imidazo[1,2-a]pyridine (Compound 8) as a PET radioligand for imaging tau protein deposition in patients with AD or other neurodegenerative disorders is conducted in healthy volunteers. AD patients, or Chronic Traumatic Encephalopathy (CTE) subjects, by completion of one or more PET scans with Compound 8. Dynamic PET imaging is acquired on a Siemens ECAT EXACT HR+ over 150 minutes following Compound 8 or [18F]AV-1451 injection (0-60 and 90-150 minute imaging segments). Compound 8 or [18F]AV-1451 scans are acquired similarly in two imaging sessions. A brain MRI is also obtained. PET and MRI images are aligned and normalized, and ATLAS-based volumes of interest (VOI) are applied to the dynamic PET series. Compound 8 or [18F]AV-1451 are evaluated in terms of kinetic profile as well as target region to cerebellum standardized uptake value ratio (SUVr between 100-120 min) between healthy volunteers and AD or CTE subjects.

[3] = Clinical PET kinetic profile: brain uptake, washout, metabolism; format: in vivo, human
Protocol: as §1

[4] = batch 235 mCi, 23.5 mCi/mL, 10% EtOH, 0.45% Sodium Ascorbate in 0.9% Sodium Chloride
[5] = batch 295 mCi, 14.8 mCi/mL, 10% EtOH, 0.45% Sodium Ascorbate in 0.9% Sodium Chloride
[6] = batch 337 mCi, 33.7 mCi/mL, 10% EtOH, 0.45% Sodium Ascorbate in 0.9% Sodium Chloride
[7] = batch 471 mCi, 47.1 mCi/mL, 10% EtOH in 0.9% Sodium Chloride (no sodium ascorbate)

With `Cc1ccc2nc3cc(N4CC([18F])C4)ccn3c2c1` [Compound 8, 3-(3-[18F]-fluoroazetidin-1-yl)-8-methylbenzo[4,5]imidazo[1,2-a]pyridine] the “Stability Results (% RCP) T0” value ([1]; batch 235 mCi, 23.5 mCi/mL, 10% EtOH (v/v), 0.45% (w/v) Sodium Ascorbate in 0.9% Sodium Chloride Injection, USP) was 98 % RCP, the “Stability Results (% RCP) T0+2 h” value [1, 4] was 97 % RCP and the “Stability Results (% RCP) T0+4 h” value [1, 4] was 97 % RCP. For the same molecule, the “Stability Results (% RCP) T0+6 h” value ([1]; batch 235 mCi, 23.5 mCi/mL, 10% EtOH, 0.45% Sodium Ascorbate in 0.9% Sodium Chloride, T0+6 h) was 97 % RCP, the “Stability Results (% RCP) T0” value [1, 5] was 97 % RCP and the “Stability Results (% RCP) T0+2 h” value [1, 5] was 96 % RCP. For the same molecule, the “Stability Results (% RCP) T0+4 h” value [1, 5] was 96 % RCP, the “Stability Results (% RCP) T0+6 h” value ([1]; batch 295 mCi, 14.8 mCi/mL, 10% EtOH, 0.45% Sodium Ascorbate in 0.9% Sodium Chloride, T0+6 h) was 96 % RCP and the “Stability Results (% RCP) T0” value [1, 6] was 98 % RCP. For the same molecule, the “Stability Results (% RCP) T0+2 h” value [1, 6] was 97 % RCP, the “Stability Results (% RCP) T0+4 h” value [1, 6] was 96 % RCP and the “Stability Results (% RCP) T0+6 h” value ([1]; batch 337 mCi, 33.7 mCi/mL, 10% EtOH, 0.45% Sodium Ascorbate in 0.9% Sodium Chloride, T0+6 h) was 96 % RCP. For the same molecule, the “Stability Results (% RCP) T0” value ([1]; batch 471 mCi, 47.1 mCi/mL, 10% EtOH (v/v) in 0.9% Sodium Chloride Injection, USP (no sodium ascorbate)) was 89 % RCP, the “Stability Results (% RCP) T0+2 h” value [1, 7] was 89 % RCP and the “Stability Results (% RCP) T0+4 h” value [1, 7] was 80 % RCP. For the same molecule, the “Stability Results (% RCP) T0+6 h” value ([1]; batch 471 mCi, 47.1 mCi/mL, 10% EtOH in 0.9% Sodium Chloride (no sodium ascorbate), T0+6 h column, value taken at 5 h) was 0 (5 h) % RCP, the “stability of formulation over time” value ([1]; batch formulated without sodium ascorbate) was “deteriorates over time and degrades by 5 hours” and the radiochemical purity retained ([1]; batches formulated with sodium ascorbate, up to 6 hours) was 96-97%. The “blocking of signal in AD brain tissue” value ([2]; AD30121, frontal cortex) was “can be blocked by non-radiolabelled compound or with the known tau PET tracer T807”, the “autoradiography signal in normal cortical or white matter tissue compared to [18F]T807” value ([2]; no ethanol in the washing solutions) was “much lower autoradiography signal” and the “radioactivity signal in normal tissue” value ([2]; washes PBS, 10% ethanol/PBS, 30% ethanol/PBS, PBS, vs AD brain tissue) was “considerably lower than in AD brain tissue”. For the same molecule, the “SUVr values compared to [18F]AV-1451” value (tau protein; AD subjects) was “slightly higher SUVr values compared to [18F]AV-1451”, the “mean SUVr averaged over all regions” value (tau protein; AD subjects) was roughly 1.6 and the “uptake in cortical brain regions, AD subjects compared with healthy controls” value (tau protein; AD subjects vs healthy controls) was “Higher uptake”. For the same molecule, the “SUVr in other cortical regions” value (tau protein; CTE subject) was roughly 1.0, the “SUVr in focal sub-regions with high uptake” value (tau protein; CTE subject, sub-regions of inferior lateral parietal, superior parietal and posterior temporal cortex) was roughly 1.5 and the “mean SUVr averaged over all regions” value (tau protein; healthy volunteer subjects) was roughly 1.1. The “SUVr in cortical regions” value (tau protein; healthy volunteer subjects, target region to cerebellum) was 1.0-1.1, the intact parent remaining ([3]; 60 min post injection, n=7) was 5±3% and the “max SUV relative to that of [18F]AV-1451” value ([3]; healthy volunteers and AD subjects) was roughly 50 % higher. For the same molecule, the peak brain uptake ([3]; human subjects, dynamic PET) was roughly 8 SUV.
